The subject of data set [1] is HCMV. Kind of data set: HCMV yield reduction assay in HFF cells. The format is cell-based, Human CMV (HCMV). The settings on record: footnote says IC90. As to the method: (§1) Virological procedures. Stock HCMV was prepared by infecting HFF cells at a multiplicity of infection (m.o.i.) of <0.01 plaque-forming units (p.f.u.) per cell. Cell growth medium was changed every four days until cytopathology was evident in all cells (approximately 21 days). Supernatant fluids were retained as the virus stock. High titer HSV-1 stocks were prepared by infecting KB cells at an m.o.i. of <0.1 as detailed previously. Turk, S. R., et al., Antimicrob. Agents Chemother. 31:544-550 (1987). Virus titers were determined using monolayer cultures of HFF cells for HCMV and monolayer cultures of BSC-1 cells for HSV-1 as described earlier. Prichard, M. N., et al., J. Virol. Methods 28:101-106 (1990). Briefly, HFF or BSC-1 cells were planted as described above in 96-well cluster dishes and incubated overnight at 37° C. in a humidified 3% CO297% air atmosphere. The next day cultures were inoculated with HCMV or HSV-1 and serially diluted 1:3 across the remaining eleven columns of the 96-well plate. Cultures were incubated at 37° C. for 2 hr to permit virus adsorption and then virus inoculum was replaced with 0.2 mL of fresh medium. Cultures were incubated for seven days for HCMV, two or three days for HSV-1, medium was removed, and the cell sheets were stained with 0.1% crystal violet in 20% methanol. Plaques were enumerated under 20-fold magnification in wells having the dilution which gave 5 to 20 plaques per well. Virus titers were calculated according to the following Formula: Titer (p.f.u./mL)=number of plaques×5×3^n; where n represents the nth dilution of the virus used to infect the well in which plaques were enumerated.
The effect of compounds on the replication of HCMV also was measured using a yield reduction assay. HFF cells were planted as described above in 96-well cluster dishes, incubated overnight, medium removed and the cultures were inoculated with HCMV at a m.o.i. of 0.5 to 1 p.f.u. per cell as reported elsewhere. After virus adsorption, inoculum was replaced with 0.2 mL of fresh medium containing test compounds. The first row of 12 wells was left undisturbed and served as virus controls. Each well in the second row received an additional 0.1 mL of medium with test compound at three times the desired final concentration. The contents of the 12 wells were mixed by repeated pipetting and then serially diluted 1:3 along the remaining wells. In this manner, six compounds could be tested in duplicate on a single plate with concentrations from 100 μM to 0.14 μM. Plates were incubated at 37° C. for seven days, subjected to one cycle of freezing and thawing; aliquots from each of the eight wells of a given column were transferred to the first column of a fresh 96-well monolayer culture of HFF cells. Contents were mixed and serially diluted 1:3 across the remaining eleven columns of the secondary plate. Each column of the original primary plate was diluted across a separate plate in this manner. Cultures were incubated, plaques were enumerated, and titers calculated as described above.
(§2) Data Analysis. Dose-response relationships were constructed by linearly regressing the percent inhibition of parameters derived in the preceding sections against log drug concentrations. Fifty-percent inhibitory (IC50) concentrations were calculated from the regression lines. Samples containing positive controls (acyclovir for HSV-1, ganciclovir for HCMV, and 2-acetylpyridine thiosemicarbazone for cytotoxicity) were used in all assays.

For another data set, the system named is KB cells. Briefly: Cytotoxicity in KB cells, growth over two population doublings. The data set is classed as cell-based. The method, then: (§3) Cells and viruses. The routine growth and passage of KB cells was performed in monolayer cultures using minimal essential medium (MEM) with either Hanks salts [MEM(H)] or Earle salts [MEM(E)] supplemented with 10% calf serum. The sodium bicarbonate concentration was varied to meet the buffering capacity required. Cultures of diploid human foreskin fibroblasts (HFF) or MRC-5 cells were grown in medium consisting of MEM(E) with 10% fetal bovine serum. Cells were passaged at 1:2 to 1:10 dilutions according to conventional procedures by using 0.05% trypsin plus 0.02% EDTA in a HEPES buffered salt solution (HBS) (Shipman, C., Jr., Proc. Soc. Exp. Biol. 130:305-310 (1969)) as described previously. Turk, S. R., et al., Antimicrob. Agents Chemother. 31:544-550 (1987). HFF and MRC-5 cells were passaged only at 1:2 dilutions. CEM cells were maintained in suspension culture as detailed previously. Kucera, L. S., et al., AIDS Res. Human Retroviruses 9:307-314 (1993).
(§4) Cytotoxicity assays. Two different assays were used to explore cytotoxicity of selected compounds as we have detailed previously. (i) Cytotoxicity produced in stationary HFF cells and in growing CEM cells was determined by microscopic inspection of cells used in plaque and RT assays which were not affected by the virus. Turk, S. R., et al., Antimicrob. Agents Chemother. 31:544-550 (1987). (ii) The effect of compounds during two population doublings of KB cells was determined by crystal violet staining and spectrophotometric quantitation of dye eluted from stained cells. Prichard, M. N., et al., Antimicrob. Agents Chemother. 35:1060-1065 (1991).
as §2

A further data set concerns HFF cells. Briefly: Cytotoxicity in stationary HFF cells, microscopic inspection. The format is cell-based, human. The method, then: as §3, §4, §2
The next data set deals with CEM cells. Briefly: Cytotoxicity in growing CEM cells, microscopic inspection. The format is cell-based. As to the method: as §3, §4, §2
Data set [2] relates to HCMV. Kind of data set: HCMV plaque reduction assay in HFF cells. The settings on record: HFF cells, plaque reduction. The data set is classed as cell-based, Human CMV (HCMV). The method, then:
as §3, §1
(a) HCMV. The effect of compounds on the replication of HCMV has been measured using a plaque reduction assay. HFF cells in 24-well cluster dishes were infected with approximately 100 p.f.u. of HCMV per cm^2 cell sheet using the procedures detailed above. Following virus adsorption, compounds dissolved in growth medium were added to duplicate wells in three to six selected concentrations. Following incubation at 37° C. for 7 to 10 days, cell sheets were fixed, stained with crystal violet and microscopic plaques enumerated as described above. Drug effects were calculated as a percentage of reduction in number of plaques in the presence of each drug concentration compared to the number observed in the absence of drug. Ganciclovir (DHPG) was used as a positive control in all experiments.
as §2
(Plaque reduction counts the foci of infection that form in a cell layer.)

The next data set deals with HIV-1. Briefly: HIV-1 reverse transcriptase assay in infected CEM cells. The format is cell-based, strain IIIB of HIV-1. As to the method:
(d) HIV-1. Reverse transcriptase (RT) was employed as a marker for HIV-1. This assay measured the presence of HIV in supernatants of CEM cells infected with strain IIIB of HIV-1 by the amount of RT activity. Cells were grown, infected, and incubated in the presence of seven concentrations (one-half log10 dilutions) beginning at 1 or 100 μM of compounds to be assayed. Procedures and the RT assay were performed as detailed previously. Kucera, L. S., et al., AIDS Res. Human Retroviruses 9:307-314 (1993); White, E. L., et al., Antiviral Res. 16:257-266 (1991).

A further data set concerns HSV-1. Briefly: HSV-1 ELISA in BSC-1 cells. The data set is classed as cell-based, herpes simplex 1 (HSV-1). Conditions: ELISA. As to the method:
as §1
(b) HSV-1. An enzyme-linked immunosorbent assay (ELISA) was employed to detect HSV-1. 96-well cluster dishes were planted with BSC-1 cells at 10,000 cells per well, in a total volume of 200 μL per well of MEM(E) plus 10% calf serum. After overnight incubation at 37° C., drug and HSV-1 was added at the rate of 100 PFU/well. ELISA plates were blocked with 200 μL per well of 10% calf serum and 0.05% tween in HBS. After incubation for 30 minutes, the blocking agent was rinsed two times with HBS-T. A 1:400 dilution of AP conjugated rabbit anti-HSV-1 antibody in HBS-F was added. Plates were sealed with adhesive sheet, and incubated on rocker for one hour at 37° C. Plates were developed in the dark with 100 μL per well of substrate solution containing p-nitrophenyl phosphate. Plates were read at […]. Drug effects were calculated as a percentage of the reduction in virus in the presence of each drug concentration compared to the titer obtained in the absence of drug. Acyclovir was used as a positive control in all experiments.
as §2
Background: An ELISA detects its analyte on a solid surface through an enzyme-linked reagent.

For data set [3], the system named is murine cytomegalovirus (MCMV). Kind of data set: Mortality of mice infected with murine cytomegalovirus. The format is in vivo. The settings on record: 5.6 mg/kg. The method, then: (§5) Compounds 1 (B=adenin-N^9-yl and guanin-N^9-yl) were evaluated in mice infected with murine cytomegalovirus (MCMV). Mice were infected intraperitonealy with sufficient MCMV to produce 90 to 100% mortality. Compounds were administered once daily for five days at doses of 5.6, 16.7 and 50 mg/kg by intraperitoneal injection in a 0.4% suspension of carboxymethylcellulose. Ganciclovir was administered in sterile water at the same doses as a positive control drug. All compounds were administered to separate groups of 15 mice each at 6, 24, and 48 hours after infection with MCMV. Groups of 10 uninfected mice also received test compounds as toxicity controls at the doses listed above.

Data set [4] is described as follows: Toxicity controls: uninfected mice given test compound. Conditions: 5.6, 16.7 and 50 mg/kg i.p. once daily for five days. The data set is classed as in vivo. The method, then: as §5
Where [5] appears, read: reverse transcriptase assay, CEM cells, low moi (footnote c of the 5th table), read-out: HIV-1, IC50.
Where [6] appears, read: Example 26, high multiplicity of infection (moi), read-out: HIV-1 IC50, reverse transcriptase assay.

Read-outs that look alike come from different tables or passages of the source. Bounds are passed on as bounds.

What is called IC90 is the concentration needed for an effect of 90%. A high value points to a need for much substance. By IC50 is commonly meant the concentration needed to halve the response being measured.

`COC(=O)[C@H](C)NP(=O)(OCC1CC1=Cn1cnc2c(N)ncnc21)Oc1ccccc1` (stereo partly drawn) [3 (B = adenine), Example 13, Methyl Phenylphosphoro-L-alaninate of syn-N^9-(2-Hydroxymethylcyclopropylidenemethyl)adenine] came in with an IC90 with HCMV [1] of 0.21 µM. Moreover, the IC50 is 0.5 µM in the data set on KB cells (KB cell growth, read-out: Cytotoxicity IC50 KB (growth)); 2.5 µM in the data set with HFF cells (stationary HFF cells, visual, read-out: Cytotoxicity IC50 HFF (visual)); 1.1 µM with CEM cells (growing CEM cells, visual, read-out: Cytotoxicity IC50 CEM (visual)); 0.14 µM in the data set with HCMV [2]; under 0.14 µM in the data set with HIV-1 (setting [5]); 2.5 µM in the data set on HSV-1 (BSC-1 cells).

`Nc1ccn(C=C2CC2CO)c(=O)n1` (stereo not drawn) [1 (B = cytosine), Example 12, syn-N^1-(2-Hydroxymethylcyclopropylidenemethyl)cytosine]: the IC90 with HCMV [1] came out at 16 µM. For the same compound, the IC50 with KB cells was over 100 µM; in the data set on HFF cells, over 100 µM; in the data set with CEM cells, over 100 µM; in the data set on HCMV [2], 28 µM; in the data set with HSV-1 (BSC-1 cells), over 100 µM.

As to `Nc1nc(N)c2ncn(C=C3CC3CO)c2n1` (stereo not drawn) [1 (B = 2,6-diaminopurine), Example 9, syn-2,6-Diamino-N^9-(2-hydroxymethylcyclopropylidenemethyl)purine], it took 18 µM to reach the 90% level in the data set on HCMV [1] (IC90). Besides, the concentration for half-maximal inhibition (IC50) was over 100 µM in the data set on KB cells; over 100 µM with HFF cells; over 100 µM with CEM cells; 15 µM in the data set with HCMV [2]; over 100 µM in the data set with HSV-1 (BSC-1 cells).

For the compound `Nc1nc(O)c2ncn(COC(CO)CO)c2n1` [ganciclovir, reference compound], the “efficacy against MCMV mortality compared with compound 1 (B=guanin-N^9-yl)” value in data set [3] is “somewhat more effective”.

On to `Nc1nc(NC2CC2)c2ncn(C=C3CC3CO)c2n1` (stereo not drawn) [syn-2-Amino-6-cyclopropylamino-N^9-(2-hydroxymethylcyclopropylidenemethyl)purine], for which the IC90 in the data set on HCMV [1] is 1 µM. Besides, the IC50 in the data set with KB cells was over 100 µM; in the data set with HFF cells, over 100 µM; in the data set on CEM cells, over 100 µM; in the data set on HCMV [2], 0.4 µM; in the data set with HSV-1 (BSC-1 cells), 20 µM.

For the compound `Nc1nc(Cl)c2ncn(C=C3CC3CO)c2n1` (stereo not drawn) [syn-2-amino-6-chloro-N^9-(2-hydroxymethylcyclopropylidenemethyl)purine], the IC90 in the data set with HCMV [1] came out at 0.8 µM. Moreover, the IC50 with KB cells is over 100 µM; with HFF cells it was over 100 µM; with HCMV [2], 5 µM; in the data set on HSV-1 (BSC-1 cells), 40 µM.

In the data set with HCMV [1], `Nc1nc2c(ncn2C=C2CC2CO)c(=O)[nH]1` (stereo not drawn) [1 (B = guanine), Example 8, syn-N^9-(2-hydroxymethylcyclopropylidenemethyl)guanine] came in with an IC90 of 1.8 µM. Also, the IC50 in the data set on KB cells was over 100 µM; in the data set with HFF cells, over 100 µM; in the data set with CEM cells, over 100 µM; in the data set with HCMV [2], 2 µM; in the data set on HIV-1 (setting [5]), 1.3 µM. In data set [4], the “deaths in uninfected mice that received only drug” value is reported as “No deaths were observed”.

For `Nc1nc(Cl)c2ncn(C=C3CC3CO)c2n1` (centres unmarked) [S-1 (B = 2-amino-6-chloropurine), Example 22], the IC50 was over 100 µM in the data set with KB cells; over 100 µM in the data set on HFF cells; over 100 µM in the data set with CEM cells; 1.8 µM in the data set on HCMV [2] (Example 26); over 100 µM in the data set on HIV-1 (setting [6]); 45 µM in the data set on HSV-1 (Example 26).

For `Nc1nc(NC2CC2)c2ncn(C=C3CC3CO)c2n1` (centres unmarked) [R-1 (B = 2-aminopurine-6-cyclo-propylaminopurine), Example 2], the IC50 in the data set with KB cells, in the data set with HFF cells, in the data set on CEM cells, in the data set with HCMV [2] (Example 26), with HIV-1 (setting [6]) and in the data set with HSV-1 (Example 26) was over 100 µM each time.
